Assay results taken from patent US20240252472A1, “COMBINATIONS FOR TREATING CANCER” (Purdue Pharma L.P., priority 2023, published 2024).

Columns and labels:
MOLP-8 cells = experiment: Daratumumab-mediated complement-dependent cytotoxicity (CDC) on pre-treated MM cells; type: cell-based; conditions: MOLP-8 pre-treated 2.5 μM 48 hours; daratumumab 0.1 or 1 μg/mL, 10% human serum, 4 hours
Protocol: ADCC, CDC and apoptosis via cross-linking To assess the effect of tinostamustine pre-treatment on cytotoxic mechanisms mediated by daratumumab, MM cell lines were first incubated in presence of tinostamustine (2.5 μM) or DMSO for 48 hours. Cells were then washed to remove tinostamustine or DMSO from the culture medium, and the corresponding cytotoxic assay (ADCC, CDC or apoptosis via cross-linking) was performed.
For the evaluation of ADCC, tinostamustine or DMSO pre-treated cells were cocultured with NK cells obtained from healthy donors in the presence of daratumumab (1 μg/ml) or the corresponding isotype control for 4 hours (ratio 1:1). Briefly, peripheral blood mononuclear cells (PBMCs) were isolated from healthy donor buffy coats by Lymphoprep density gradient centrifugation. […] In all three assays, the cytotoxic effect on MM cells was evaluated by flow cytometry with Annexin V/7AAD staining after treatment with daratumumab. […]
MM cells (MOLP-8 pre-treated with 0 or 2.5 μM EDO-S101 for 48 hours in accordance with the methods outlined above) were incubated with 0.1 μg/mL daratumumab, 1 μg/ml daratumumab, or the corresponding isotype control, for 30 minutes at 37° C. […] The percentage of dead cells was then evaluated by flow cytometry in accordance with the methods outlined above, using AnnexinV/7AAD staining.

MM cells (MOLP-8) = experiment: Daratumumab-mediated ADCP, macrophage/myeloma co-culture; type: cell-based, human; conditions: MM cells pre-treated 2.5 μM 48 hours; macrophages 3:1, daratumumab 4 hours; vs not pre-treated
Protocol: Mononuclear cells were isolated from buffy coats from healthy donors using density gradient centrifugation with Ficoll and subsequently CD14+ monocytes were magnetically isolated in an autoMACS® Pro Separator. Monocytes were cultured for 7 days in the presence of GM-CSF (10 ng/mL) to induce differentiation to macrophages. For the evaluation of ADCP, myeloma cells were either untreated or pre-treated with 2.5 μM EDO-S101 for 48 hours. Cells were washed to remove EDO-S101 from the culture medium, and untreated and pre-treated myeloma cells were stained with PKH26. Co-cultures of macrophages and myeloma cells^PKH26+ (ratio 3:1) were incubated with different concentrations of daratumumab or the corresponding isotype control for 4 hours at 37° C. ADCP was evaluated by flow cytometry with the panel: CD11b-FITC/PKH26/CD138-APC. […]
ADCP was quantified as the percentage of double positive events using the following formula: […]
‘Treatment double positive cells’ refers to the proportion of macrophages (as a percentage) determined to have phacocytosed MM cells in co-cultures treated with daratumumab. ‘Control double positive cells’ refers to the proportion of macrophages (as a percentage) determined to have phacocytosed MM cells in co-cultures that were ED-S101 untreated or pre-treated but not treated with daratumumab.
Elimination of myeloma cells was calculated using the following formula: […]

Q: What does the source list for `Cn1c(CCCCCCC(=O)NO)nc2cc(N(CCCl)CCCl)ccc21` [EDO-S101, 7-(5-(bis(2-chloroethyl)amino)-1-methyl-1H-benzo[d]imidazol-2-yl)-N-hydroxyheptanamide]?
A: daratumumab mediated CDC (MOLP-8 cells): enhanced; ADCP: percentage of double positive events (macrophages that have phagocytosed myeloma cells) (MM cells (MOLP-8)): increased; ADCP: percentage of eliminated MM cells (MM cells (MOLP-8)): decreased
